Tests used:
[1] = test system: scanMAX kinase panel (EGFR mutant, ERBB2, ERBB4); assay: DiscoverX (eurofin) KINOMEscan (scanMAX platform) kinase profiling; format: binding; conditions: for suppression activity against the EGFR mutant and ERBB2 and ERBB4: KINOMEscan scanMAX kinase profiling
From the text: It was confirmed that the above example compounds had high selectivity against EGFR series genes. Accordingly, these can be useful in the treating of cancers wherein this kinase is expressed. In particular, as they have substantially outstanding lung cancer cell line proliferation suppression, they can be useful in the treatment of lung cancer, breast cancer, and brain cancer.

PC9 = assay: Lung cancer cell proliferation suppression, PC9; format: cell-based; conditions: Homo sapiens, PC-9; 72 hours after treatment, CellTiter-Glo
Summary of the method: (§1)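 After 72 h compound exposure (twelve 3-fold steps, 0.3 nM–50 um final), live cells were measured by CellTiter-Glo luminescence and growth expressed as % of control to derive GI50. Cells were seeded at 3000–5000 per well a day earlier; Ba/F3 medium contained IL-3; three repeats.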

[2] = target: T1, Ba/F3 cell EGFR L858R/T790M (Homo sapiens, UniProt P00533, L858R/T790M); assay: Ba/F3 cell proliferation suppression, EGFR L858R/T790M; format: cell-based; conditions: 72 hours after treatment, CellTiter-Glo
T1 construct: expressed in transfected cells; host or cells: Ba/F3
Summary of the method: as §1

PC9GR = assay: Lung cancer cell proliferation suppression, PC9GR; format: cell-based; conditions: 72 hours after treatment, CellTiter-Glo
Summary of the method: as §1

[3] = target: T2, Ba/F3 cell EGFR Exon20 ins FQEA (Homo sapiens, UniProt P00533, INS763FQEA); assay: Ba/F3 cell proliferation suppression, EGFR Exon20 ins FQEA; format: cell-based; conditions: 72 hours after treatment, CellTiter-Glo
T2 construct: expressed in transfected cells; host or cells: Ba/F3
Summary of the method: as §1

Ba/F3 cell EGFR L858R = target: T3, Ba/F3 cell EGFR L858R (Homo sapiens, UniProt P00533, L858R); assay: Ba/F3 cell proliferation suppression, EGFR L858R; format: cell-based; conditions: 72 hours after treatment, CellTiter-Glo
T3 construct: expressed in transfected cells; host or cells: Ba/F3
Summary of the method: as §1

[4] = target: T4, Ba/F3 cell EGFR Exon20 ins ASV (Homo sapiens, UniProt P00533, INS769ASV); assay: Ba/F3 cell proliferation suppression, EGFR Exon20 ins ASV; format: cell-based; conditions: 72 hours after treatment, CellTiter-Glo
T4 construct: expressed in transfected cells; host or cells: Ba/F3
Summary of the method: as §1

H1975 = assay: Lung cancer cell proliferation suppression, H1975; format: cell-based; conditions: Homo sapiens, NCI-H1975; 72 hours after treatment, CellTiter-Glo
Summary of the method: as §1

[5] = test system: Ba/F3 cell EGFR Exon20 ins H; assay: Ba/F3 cell proliferation suppression, EGFR Exon20 ins H; format: cell-based; conditions: 72 hours after treatment, CellTiter-Glo
Description: (§2) The following experiment was carried out to evaluate the suppression activity of the compounds according to the present invention against proliferation of Ba/F3 and lung cancer cells which express EGFR mutations.
(§3) Of the cancer cell lines expressing the EGFR gene, A549 was cultured after adding 10% FBS (HyClone) to DMEM (Invitrogen), and RPMI-1640 (Invitrogen) with 10% FBS was used for the other cancer cells. For the Ba/F3 cells, RPMI-1640 with 10% FBS and 5 ng/ml IL-3 (R&D Systems) was used. The transduced Ba/F3 cells were cultured by adding 1 ug/ml puromycin (Invitrogen) to the same medium.
(§4) 24 hours before treatment with the compounds, 3000 to 5000 cells were distributed into each well of a white clear bottom 96 well plate (Corning). The compounds were diluted in dimethylsulfoxide (dilution ratio 3:1; 12 concentrations total) and injected 0.5 ul each for a final concentration of 0.3 nM to 50 um. As for measurement of live cells, 72 hours after treatment with the compounds, a CellTiter-Glo luminescent cell-viability reagent (Promega) was used to store the cells at room temperature for 10 minutes, followed by measurement of luminescence using a reader (SynergyNeo, Biotek). Each test was repeated three times.
(§5) The result was calculated as a cell growth ratio (%) compared to a control. The program GraphPad Prism version 5.0 was used to draw the graphs and calculate the GI50 values.

Ba/F3 cell naive = assay: Ba/F3 cell proliferation suppression, naive; format: cell-based; conditions: Mus musculus, BaF3; 72 hours after treatment, CellTiter-Glo
Summary of the method: as §1

[6] = target: T5, Ba/F3 cell HER2 Exon20 ins YVMA (Homo sapiens, UniProt P04626, INS775YVMA); assay: Ba/F3 cell proliferation suppression, HER2 Exon20 ins YVMA; format: cell-based; conditions: 72 hours after treatment, CellTiter-Glo
T5 construct: expressed in transfected cells; host or cells: Ba/F3
Summary of the method: as §1

[7] = Cancer cell proliferation suppression, A549; format: cell-based; conditions: A459; 72 hours after treatment, CellTiter-Glo
Description: as §2, §3, §4, §5

[8] = target: T6, Ba/F3 cell EGFR Exon20 ins NPH (Homo sapiens, UniProt P00533, INS773NPH); assay: Ba/F3 cell proliferation suppression, EGFR Exon20 ins NPH; format: cell-based; conditions: for GI50: 72 hours after treatment, CellTiter-Glo; for Ba/F3 (NPH) Activity: GI50 class, Ba/F3 cell line with NPH inserted at Exon20 of EGFR, 72 hours
T6 construct: expressed in transfected cells; host or cells: Ba/F3
Summary of the method: as §1

[9] = test system: Ba/F3 cell EGFR Del19/T790M; assay: Ba/F3 cell proliferation suppression, EGFR Del19/T790M; format: cell-based; conditions: 72 hours after treatment, CellTiter-Glo
Summary of the method: as §1

[10] = target: T7, Ba/F3 cell EGFR Exon20 ins SVD (Homo sapiens, UniProt P00533, INS770SVD); assay: Ba/F3 cell proliferation suppression, EGFR Exon20 ins SVD; format: cell-based; conditions: 72 hours after treatment, CellTiter-Glo
T7 construct: expressed in transfected cells; host or cells: Ba/F3
Summary of the method: as §1

T5 sequence (P04626 with tags, fused parts or gaps INS775YVMA): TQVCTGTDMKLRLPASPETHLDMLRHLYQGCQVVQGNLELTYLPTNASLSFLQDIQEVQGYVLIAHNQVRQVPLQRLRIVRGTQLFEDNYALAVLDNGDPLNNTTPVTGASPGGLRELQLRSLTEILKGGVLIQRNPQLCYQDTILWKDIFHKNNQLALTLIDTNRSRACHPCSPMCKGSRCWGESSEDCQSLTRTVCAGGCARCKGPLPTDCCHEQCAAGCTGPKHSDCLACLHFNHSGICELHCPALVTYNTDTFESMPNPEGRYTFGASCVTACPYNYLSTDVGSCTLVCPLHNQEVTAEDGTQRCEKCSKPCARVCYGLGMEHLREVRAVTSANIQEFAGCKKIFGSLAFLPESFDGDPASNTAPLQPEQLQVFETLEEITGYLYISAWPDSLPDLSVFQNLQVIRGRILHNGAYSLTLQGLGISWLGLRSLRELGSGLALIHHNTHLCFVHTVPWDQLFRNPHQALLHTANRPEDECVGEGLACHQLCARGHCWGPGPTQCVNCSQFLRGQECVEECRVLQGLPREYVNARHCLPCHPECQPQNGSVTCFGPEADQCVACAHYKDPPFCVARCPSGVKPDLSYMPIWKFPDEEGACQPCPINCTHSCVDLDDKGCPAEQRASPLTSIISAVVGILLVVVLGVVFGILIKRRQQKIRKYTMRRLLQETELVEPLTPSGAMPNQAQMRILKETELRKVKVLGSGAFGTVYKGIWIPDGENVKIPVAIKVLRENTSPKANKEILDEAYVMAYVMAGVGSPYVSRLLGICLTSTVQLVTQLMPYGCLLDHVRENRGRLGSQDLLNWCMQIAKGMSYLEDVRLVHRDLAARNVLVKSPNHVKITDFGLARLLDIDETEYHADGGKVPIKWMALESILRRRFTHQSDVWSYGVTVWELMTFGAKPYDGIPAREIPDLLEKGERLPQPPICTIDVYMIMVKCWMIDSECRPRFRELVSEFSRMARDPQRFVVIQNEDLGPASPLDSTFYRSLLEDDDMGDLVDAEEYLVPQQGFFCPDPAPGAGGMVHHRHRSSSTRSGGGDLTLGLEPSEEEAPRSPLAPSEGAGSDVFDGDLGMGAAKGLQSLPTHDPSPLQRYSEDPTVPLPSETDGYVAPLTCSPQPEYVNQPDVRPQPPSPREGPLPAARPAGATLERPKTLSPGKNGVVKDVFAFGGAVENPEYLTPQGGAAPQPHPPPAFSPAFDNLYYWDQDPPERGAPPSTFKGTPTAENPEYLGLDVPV

With `C=CC(=O)Nc1cc(Nc2cc(N3OCC[C@@H]3c3ccccc3)ncn2)c(OC)cc1N(C)CCN(C)C` [Example 4] the “% inhibition of scanMAX Kinase profiling” value ([1]; EGFR(E746-A750del)) was 100%, the “% inhibition of scanMAX Kinase profiling” value ([1]; EGFR(G719C)) was 100% and the “% inhibition of scanMAX Kinase profiling” value ([1]; EGFR(G719S)) was 100%. The “% inhibition of scanMAX Kinase profiling” value ([1]; EGFR(L747-E749del, A750P)) was 97%, the “% inhibition of scanMAX Kinase profiling” value ([1]; EGFR(L747-T751del.Sins)) was 100% and the “% inhibition of scanMAX Kinase profiling” value ([1]; EGFR(L858R)) was 100%. The “% inhibition of scanMAX Kinase profiling” value ([1]; EGFR(L858R.T790M)) was 96%, the “% inhibition of scanMAX Kinase profiling” value ([1]; EGFR(L861q)) was 100% and the “% inhibition of scanMAX Kinase profiling” value ([1]; EGFR(S752-I759del)) was 100%. The “% inhibition of scanMAX Kinase profiling” value ([1]; EGFR(T790M)) was 99%, the “% inhibition of scanMAX Kinase profiling” value ([1]; ERBB2) was 100% and the “% inhibition of scanMAX Kinase profiling” value ([1]; ERBB4) was 100%. The “suppression activity against the EGFR mutant and ERBB2 and ERBB4” value [1] was “high suppression activity”, the GI50 (PC9) was 1 nM and the GI50 [2] was under 0.05 µM. For the same compound, the GI50 (PC9GR) was 20 nM, the GI50 [3] was under 0.05 µM and the GI50 (Ba/F3 cell EGFR L858R) was under 0.05 µM. The GI50 [4] was under 0.05 µM, the GI50 (H1975) was 28 nM and the GI50 [5] was under 0.05 µM. It also gave a GI50 (Ba/F3 cell naive) of at least 5 µM, a GI50 [6] of under 0.05 µM and a GI50 [7] of over 15000 nM. For the same compound, the GI50 [8] was under 0.05 µM, the “Ba/F3 (NPH) Activity” value [8] was “A (GI50 < 50 nM)” and the GI50 [9] was under 0.05 µM. For the same compound, the GI50 [10] was under 0.05 µM.
In the case of `C=CC(=O)Nc1cc(Nc2cc(N3OCC[C@@H]3c3ccccc3)ncn2)c(OC)cc1N1CCC(N2CCN(C)CC2)CC1` [Example 9], the “% inhibition of scanMAX Kinase profiling” value ([1]; EGFR(E746-A750del)) is reported as 100%, the “% inhibition of scanMAX Kinase profiling” value ([1]; EGFR(G719C)) is reported as 100% and the “% inhibition of scanMAX Kinase profiling” value ([1]; EGFR(G719S)) is reported as 100%. The “% inhibition of scanMAX Kinase profiling” value ([1]; EGFR(L747-E749del, A750P)) was 100%, the “% inhibition of scanMAX Kinase profiling” value ([1]; EGFR(L747-T751del.Sins)) was 100% and the “% inhibition of scanMAX Kinase profiling” value ([1]; EGFR(L858R)) was 100%. The “% inhibition of scanMAX Kinase profiling” value ([1]; EGFR(L858R.T790M)) was 96%, the “% inhibition of scanMAX Kinase profiling” value ([1]; EGFR(L861q)) was 100% and the “% inhibition of scanMAX Kinase profiling” value ([1]; EGFR(S752-I759del)) was 100%. The “% inhibition of scanMAX Kinase profiling” value ([1]; EGFR(T790M)) was 99%, the “% inhibition of scanMAX Kinase profiling” value ([1]; ERBB2) was 100% and the “% inhibition of scanMAX Kinase profiling” value ([1]; ERBB4) was 100%. For the same compound, the “suppression activity against the EGFR mutant and ERBB2 and ERBB4” value [1] was “high suppression activity”, the GI50 (PC9) was 1 nM and the GI50 [2] was under 0.05 µM. For the same compound, the GI50 (PC9GR) was 4 nM, the GI50 [3] was under 0.05 µM and the GI50 (Ba/F3 cell EGFR L858R) was under 0.05 µM. For the same compound, the GI50 [4] was under 0.05 µM, the GI50 (H1975) was 6 nM and the GI50 [5] was under 0.05 µM. For the same compound, the GI50 (Ba/F3 cell naive) was at least 5 µM, the GI50 [6] was under 0.05 µM and the GI50 [7] was over 15000 nM. For the same compound, the GI50 [8] was under 0.05 µM, the “Ba/F3 (NPH) Activity” value [8] was “A (GI50 < 50 nM)” and the GI50 [9] was under 0.05 µM. For the same compound, the GI50 [10] was under 0.05 µM.
